Test [1] concerns Y2. The following applies: mammals; PYY3-36 formed by dipeptidyl peptidase IV cleavage; ref Mentlein et al., 1993; cited from earlier work. The source says:
Studies of how NPY affects appetite have been conducted in several fish species (Narnaware et al., [2000]; Narnaware and Peter, [2001]) and the NPY system seems to influence food intake, although the orexigenic receptor subtypes have not been identified in the fish species studied. The receptors that in mammals are involved in inhibition of appetite have been known in zebrafish for several years and there have been some studies investigating how PYY can inhibit feeding. In mammals it seems like the main inhibitory action on appetite is performed by PYY3-36. This peptide is the result of cleava ...

The subject of a further test is Y4. The following applies: PP, PYY and NPY compared, ref Lundell et al., 1995, 2002; cited from earlier work. From the text: Functional and evolutionary studies in mammals have shown that their Y4 receptor has evolved a partnership with pancreatic polypeptide (PP). It should be stressed that PYYb is not the teleost fish ortholog of PP, instead the latter is a tandem duplicate of PYY that probably took place early in the tetrapod lineage. […] Thus, the PP-Y4 preference seems to have evolved in mammals (Lundell et al., [1995], [2002]). One aim of the present study was to investigate ...

The test system of another test is Y8a (Yc). Put plainly: Competition binding with 125I-pPYY, zebrafish Y8a receptor (CHO-cells). From the text:
(§1) The zebrafish receptors have previously been cloned and expressed in cell lines by our laboratory. The zebrafish Y8a and Y8b receptors were inserted in a pTEJ-8 vector and stably expressed in CHO-cells (Ringvall et al., [1997]; Berglund et al., [2000]). Y7 has been inserted in a pCEP4 vector and semi-stably expressed in HEK 293-EBNA cells (Fredriksson et al., [2004]). The zebrafish Y4 receptor coding region was inserted in a pTEJ-8 vector (Starback et al., [1999]) and transient expressed in HEK cells. The cell-lines were grown according to the recommendations of the manufacturer. Ninety percent of the confluent cells were harvested and mixed with 100 μl 25 mM HEPES buffer (pH 7.4 and 2.5 mM CaCl2 and 1 mM MgCl2) and stored at −80°C.
(§2) Thawed aliquots of transfected cells were mixed with 1 ml 25 mM HEPES buffer (pH 7.4, 2.5 mM CaCl2, 1 mM MgCl2 and 0.2 g/l bacitracin). The samples were homogenized and another 1 ml buffer was added. ^125I-pPYY was used as radioligand in all experiments, radioligand, and unlabeled ligands (serial concentrations of zfNPY, zfPYYa, and zfPYYb respectively) and cells were mixed at the proportion 2:1:1 in 100 μl reactions followed by 2 h incubation. […] The radioactivity was measured using a Wallac 1450 Betaplate counter and the results were analyzed using Prism 4.0 software package (GraphPad, San Diego, CA, USA). […]

Another test concerns Y8b (Yb). Put plainly: Competition binding with 125I-pPYY, zebrafish Y8b receptor (CHO-cells). The following applies: stably expressed in CHO-cells, competition with 125I-pPYY, 25 mM HEPES pH 7.4, 2.5 mM CaCl2, 1 mM MgCl2, bacitracin, 2 h incubation, mean ± SEM, n = 4 (zfNPY), 3 (zfPYYa), 4 (zfPYYb).
Description: as §1, §2

The test system of the next test is Y7. Kind of test: Competition binding with 125I-pPYY, zebrafish Y7 receptor (HEK 293-EBNA cells). The following applies: for Ki: zebrafish Y7, semi-stably expressed in HEK 293-EBNA cells, competition with 125I-pPYY, 25 mM HEPES pH 7.4, 2.5 mM CaCl2, 1 mM MgCl2, bacitracin, 2 h incubation, mean ± SEM, n = 5 (zfNPY), 3 (zfPYYa), 5 (zfPYYb).
Description: as §1
Thawed aliquots of transfected cells were mixed with 1 ml 25 mM HEPES buffer (pH 7.4, 2.5 mM CaCl2, 1 mM MgCl2 and 0.2 g/l bacitracin). The samples were homogenized and another 1 ml buffer was added. ^125I-pPYY was used as radioligand in all experiments, radioligand, and unlabeled ligands (serial concentrations of zfNPY, zfPYYa, and zfPYYb respectively) and cells were mixed at the proportion 2:1:1 in 100 μl reactions followed by 2 h incubation. The zebrafish NPY (zfNPY) and PYYa (zfPYYa) were synthesized at Eli Lilly and Company. The zebrafish PYYb (zfPYYb) was supplied in a crude form by GL Biochem Shanghai and purified as previously described (Fredriksson et al., [2006]). The incubation was terminated by rapid filtration through GF/C filters pre-soaked in 0.3% polyethyleneimin, using a TOMTEC cell harvester (Orange, CT, USA). The filters were washed with 50 mM Tris-HCl (pH 7.4) and dried at 50°C for 30 min. Filters were treated with MeltiLex A melt on scintillator sheets (Perkin Elmer, Boston, MA, USA). The radioactivity was measured using a Wallac 1450 Betaplate counter and the results were analyzed using Prism 4.0 software package (GraphPad, San Diego, CA, USA). The pKi values were compared to each other using One-Way ANOVA followed by Tukey-Kramer Multiple Comparison Test (GraphPad, San Diego, CA, USA).
The zebrafish receptors were expressed in mammalian cells and the membrane fraction was used for binding experiments. Competition binding experiments were performed using the three endogenous ligands NPY, PYYa and PYYb in competition with iodinated porcine PYY. The mature 36 amino acid PYYb peptide has fourteen differences compared to NPY and seven when compared with PYYa (see Figure 1). PYYa differs from NPY at nine positions. Thus, PYYb has clearly changed more than PYYa after duplication of their common ancestral gene.

The next test deals with Y4(Ya). Kind of test: Competition binding with 125I-pPYY, zebrafish Y4 receptor (HEK cells). The following applies: transiently expressed in HEK cells, competition with 125I-pPYY, 25 mM HEPES pH 7.4, 2.5 mM CaCl2, 1 mM MgCl2, bacitracin, 2 h incubation, mean ± SEM, n = 3 (zfNPY), 3 (zfPYYa), 3 (zfPYYb).
Description: as §1, §2

Test [2] deals with Y2. The following applies: zebrafish Y2, ref Fredriksson et al., 2006, cited from earlier work. The source says: The neuropeptide Y (NPY) system influences numerous physiological functions including feeding behavior, endocrine regulation, and cardiovascular regulation. In jawed vertebrates it consists of 3–4 peptides and 4–7 receptors. Teleost fishes have unique duplicates of NPY and PYY as well as the Y8 receptor. In the zebrafish, the NPY system consists of the peptides NPYa, PYYa, and PYYb (NPYb appears to have been lost) and at least seven NPY receptors: Y1, Y2, Y2-2, Y4, Y7, Y8a, and Y8b. Previously PYYb binding has been reported for Y2 and Y2-2. To search for peptide-receptor preferences, we have i ... || The main objective of this study was to examine the affinity of PYYb for the Y4, Y7, Y8a, and Y8b receptors, and to compare it to the other two endogenous peptides, NPY and PYYa. […] The zebrafish Y7 receptor is 50% identical to zebrafish Y2 and PYYa has low affinity for both of these. This observation will be interesting to correlate with the physiological roles of the peptides and receptors in z ... || (+ 1 further places)

Entries after “also recorded” stand apart in the source; their conditions may differ. No end group written: not given here.

Regarding PYY3-36, the “selectivity for Y2 over the other receptor subtypes” value in the test with Y2 [1] is on record as “selectivity for Y2 over the other receptor subtypes”.
Regarding “chicken PP: chicken pancreatic polypeptide (GPSQPTYPGDDAPVEDLIRFYNDLQQYLNVVTRHRY; ends and bridges not checked; UniProt P68248 26-61, looked up)”, the “affinity for chicken Y4” value in the test with Y4 is listed as “equal affinities”.
Take “zfNPY: endogenous zebrafish neuropeptide Y, synthesized at Eli Lilly and Company”: the inhibitory constant (Ki) (usually a measure of affinity in units of concentration, obtained from inhibition or displacement) stood at 0.21 ± 0.07 nM in the test on Y8a (Yc) (zebrafish Y8a (Yc), stably expressed in CHO-cells, competition with 125I-pPYY, 25 mM HEPES pH 7.4, 2.5 mM CaCl2, 1 mM MgCl2, bacitracin, 2 h incubation, mean ± SEM, n = 7 (zfNPY), 6 (zfPYYa), 4 (zfPYYb)); 0.13 ± 0.04 nM with Y8b (Yb); 0.57 ± 0.16 nM in the test with Y7; 0.033 ± 0.005 nM in the test with Y4(Ya).
Take “zfPYYa: endogenous zebrafish PYYa, synthesized at Eli Lilly and Company”: in the test on Y8a (Yc) (zebrafish Y8a, PYYa vs NPY and PYYb), the “affinity for Y8a compared with the other two peptides” value is on record as “slightly lower than the other two peptides”. The Ki with Y8b (Yb) amounted to 0.25 ± 0.12 nM; in the test on Y7 it was 1.82 nM; in the test on Y4(Ya), 0.034 ± 0.009 nM. In addition, the “affinity for Y2” value in the test on Y2 [2] (previously reported) is given as 3 nM. In addition, in the test on Y2 [2], the “preference of Y2 / affinity for Y2” value is on record as “low affinity”. Also, in the test on Y7 (zebrafish Y7, PYYa vs NPY and PYYb), the “fold lower affinity for Y7 than NPY and PYYb” value amounted to 3 fold. In addition, in the test with Y7 (zebrafish Y7, pKi compared by One-Way ANOVA, Tukey-Kramer), the “affinity for Y7 compared with NPY and PYYb” value is listed as “significantly lower affinity; also recorded: low affinity”.

Source of the values: paper PMC3598007, “Interactions of zebrafish peptide YYb with the neuropeptide Y-family receptors Y4, Y7, Y8a, and Y8b” (Frontiers in Neuroscience, 2013).
